Measured values: patent US11931424B2, “Combination MCL-1 inhibitors with anti-body drug conjugates” (Gilead Sciences, Inc., priority 2021, dated 2024)

Tested on: panel of breast cancer cell lines
Assay: Compound A with targeted agents and chemotherapies, 72-hour in vitro proliferation assays
Format: cell-based
Conditions: 72-hour proliferation
[1] = BT-20 cell line, compound A × partner
[2] = CAL-51 cell line, compound A × partner
[3] = CAL-85-1 cell line, compound A × partner
[4] = CAL-120 cell line, compound A × partner
[5] = CAL-148 cell line, compound A × partner
[6] = CAMA-1 cell line, compound A × partner
[7] = DU-4475 cell line, compound A × partner
[8] = EVSA-T cell line, compound A × partner
[9] = HCC1143 cell line, compound A × partner
[10] = MCF7 cells, Compound A × partner agent
[11] = AU565 cell line, compound A × partner
[12] = BT-474 cell line, compound A × partner
[13] = BT-549 cell line, compound A × partner
[14] = MDA-MB-175-VII cells, Compound A × partner agent
[15] = MDA-MB-231 cells, Compound A × partner agent
[16] = MDA-MB-361 cells, Compound A × partner agent
[17] = MDA-MB-436 cells, Compound A × partner agent
[18] = MDA-MB-453 cells, Compound A × partner agent
[19] = MDA-MB-468 cells, Compound A × partner agent
[20] = SK-BR-3 cells, Compound A × partner agent
[21] = SUM159PT cells, combination of compound A with the named agent
[22] = T47D cells, combination of compound A with the named agent
[23] = ZR-75-1 cells, combination of compound A with the named agent
[24] = ZR-75-30 cells, combination of compound A with the named agent

CCN1CCN(Cc2ccc(Nc3ncc(F)c(-c4cc(F)c5nc(C)n(C(C)C)c5c4)n3)nc2)CC1 [Abemaciclib]
Best CI [1]: 0.79
Bliss Volume [1]: 3.95
HSA volume [1]: 5.53
Loewe Volume [1]: 5.32
Best CI [2]: 1.31
Bliss Volume [2]: 1.55
HSA volume [2]: −0.56
Loewe Volume [2]: 2.06
Synergy Score [2]: 2.51
Best CI [3]: 0.77
Bliss Volume [3]: 2.60
HSA volume [3]: 3.28
Loewe Volume [3]: 3.04
Synergy Score [3]: 6.47
Best CI [4]: 1.78
Bliss Volume [4]: −5.16
HSA volume [4]: −5.98
Loewe Volume [4]: −5.00
Synergy Score [4]: 1.03
Best CI [5]: 0.70
Bliss Volume [5]: 6.48
HSA volume [5]: 5.91
Loewe Volume [5]: 6.28
Synergy Score [5]: 15.50
Best CI [6]: 0.32
Bliss Volume [6]: −6.25
HSA volume [6]: −10.24
Loewe Volume [6]: −10.33
Synergy Score [6]: 1.56
Best CI [7]: 1.25
Bliss Volume [7]: 6.92
HSA volume [7]: 5.32
Loewe Volume [7]: 5.72
Synergy Score [7]: 5.07
Best CI [8]: 0.64
Bliss Volume [8]: 0.41
HSA volume [8]: −2.86
Loewe Volume [8]: −2.48
Synergy Score [8]: 0.77
Best CI (HCC38, compound A × partner): 0.83
Bliss Volume (HCC38, compound A × partner): −4.64
HSA volume (HCC38, compound A × partner): −4.71
Loewe Volume (HCC38, compound A × partner): −4.54
Synergy Score (HCC38, compound A × partner): 6.14
Best CI (HCC70, compound A × partner): 0.92
Bliss Volume (HCC70, compound A × partner): 10.18
HSA volume (HCC70, compound A × partner): 6.99
Loewe Volume (HCC70, compound A × partner): 8.33
Synergy Score (HCC70, compound A × partner): 18.15
Best CI [9]: 0.41
Bliss Volume [9]: 10.33
HSA volume [9]: 2.87
Loewe Volume [9]: 9.43
Synergy Score [9]: 7.43
Best CI (HCC1569, compound A × partner): 0.18
Bliss Volume (HCC1569, compound A × partner): 14.07
HSA volume (HCC1569, compound A × partner): 13.17
Loewe Volume (HCC1569, compound A × partner): 14.38
Synergy Score (HCC1569, compound A × partner): 19.73
Bliss Volume (HCC1806, compound A × partner): 4.89
HSA volume (HCC1806, compound A × partner): 0.30
Loewe Volume (HCC1806, compound A × partner): 3.10
Synergy Score (HCC1806, compound A × partner): 4.43
Best CI (HCC1937, compound A × partner): 0.26
Bliss Volume (HCC1937, compound A × partner): 16.67
Loewe Volume (HCC1937, compound A × partner): 16.44
Synergy Score (HCC1937, compound A × partner): 28.56
Best CI (HCC1954, compound A × partner): 0.89
Bliss Volume (HCC1954, compound A × partner): 1.45
HSA volume (HCC1954, compound A × partner): −0.39
Loewe Volume (HCC1954, compound A × partner): −1.29
Synergy Score (HCC1954, compound A × partner): 12.74
Best CI (HCC2218, compound A × partner): 1.44
Bliss Volume (HCC2218, compound A × partner): −2.40
HSA volume (HCC2218, compound A × partner): −5.74
Loewe Volume (HCC2218, compound A × partner): −6.61
Synergy Score (HCC2218, compound A × partner): 4.14
Best CI (HDQ-P1, compound A × partner): 0.82
Bliss Volume (HDQ-P1, compound A × partner): −0.79
HSA volume (HDQ-P1, compound A × partner): −0.19
Loewe Volume (HDQ-P1, compound A × partner): 0.43
Synergy Score (HDQ-P1, compound A × partner): 2.48
Best CI (HMC-1-8, compound A × partner): 0.30
Bliss Volume (HMC-1-8, compound A × partner): 24.27
HSA volume (HMC-1-8, compound A × partner): 13.46
Loewe Volume (HMC-1-8, compound A × partner): 13.14
Synergy Score (HMC-1-8, compound A × partner): 24.23
Best CI (JIMT-1, compound A × partner): 1.23
Bliss Volume (JIMT-1, compound A × partner): 1.74
HSA volume (JIMT-1, compound A × partner): 1.30
Loewe Volume (JIMT-1, compound A × partner): 1.54
Synergy Score (JIMT-1, compound A × partner): 1.34
Best CI (KPL-1, compound A × partner): 0.77
Bliss Volume (KPL-1, compound A × partner): −3.02
HSA volume (KPL-1, compound A × partner): −1.63
Loewe Volume (KPL-1, compound A × partner): −2.87
Best CI [10]: 1.06
Bliss Volume [10]: 4.62
HSA volume [10]: 4.76
Synergy Score [10]: 8.46

CC(=O)O[C@@]12CO[C@@H]1C[C@H](O)[C@@]1(C)C(=O)[C@H](O)C3=C(C)[C@@H](OC(=O)[C@H](O)[C@@H](NC(=O)OC(C)(C)C)c4ccccc4)C[C@@](O)([C@@H](OC(=O)c4ccccc4)[C@H]21)C3(C)C [Docetaxel]
Bliss Volume [11]: 16.97
HSA volume [11]: 3.68
Loewe Volume [11]: 1.71
Synergy Score [11]: 7.58
Bliss Volume [1]: 27.23
HSA volume [1]: 21.05
Loewe Volume [1]: 19.90
Synergy Score [1]: 39.72
Bliss Volume [12]: 16.39
HSA volume [12]: 9.80
Loewe Volume [12]: 8.62
Synergy Score [12]: 14.51
Bliss Volume [13]: 22.57
HSA volume [13]: 22.13
Loewe Volume [13]: 22.04
Synergy Score [13]: 39.66
Bliss Volume [2]: 2.26
HSA volume [2]: 3.35
Loewe Volume [2]: 3.12
Synergy Score [2]: 4.88
Bliss Volume [3]: 13.68
HSA volume [3]: 11.86
Loewe Volume [3]: 11.10
Synergy Score [3]: 19.64
Bliss Volume [4]: 8.92
HSA volume [4]: 7.98
Loewe Volume [4]: 8.39
Synergy Score [4]: 11.63
Bliss Volume [5]: 15.94
HSA volume [5]: 13.90
Loewe Volume [5]: 12.92
Synergy Score [5]: 28.74
Bliss Volume [6]: 29.57
HSA volume [6]: 6.98
Loewe Volume [6]: 4.88
Synergy Score [6]: 13.30
Bliss Volume [7]: 19.28
HSA volume [7]: 13.68
Loewe Volume [7]: 12.74
Synergy Score [7]: 20.30
Bliss Volume [8]: 32.24
HSA volume [8]: 12.42
Loewe Volume [8]: 12.22
Synergy Score [8]: 24.87
Bliss Volume (HCC38, compound A × partner): 23.64
HSA volume (HCC38, compound A × partner): 16.36
Loewe Volume (HCC38, compound A × partner): 14.95
Synergy Score (HCC38, compound A × partner): 29.56
Bliss Volume (HCC70, compound A × partner): 25.33
HSA volume (HCC70, compound A × partner): 22.90
Loewe Volume (HCC70, compound A × partner): 20.81
Synergy Score (HCC70, compound A × partner): 39.82
Bliss Volume [9]: 11.00
HSA volume [9]: 9.41
Loewe Volume [9]: 8.32
Synergy Score [9]: 18.84
Bliss Volume (HCC1569, compound A × partner): 6.58
HSA volume (HCC1569, compound A × partner): 8.56
Loewe Volume (HCC1569, compound A × partner): 9.52
Synergy Score (HCC1569, compound A × partner): 11.65
Bliss Volume (HCC1806, compound A × partner): 17.46
HSA volume (HCC1806, compound A × partner): 12.45
Loewe Volume (HCC1806, compound A × partner): 12.66
Synergy Score (HCC1806, compound A × partner): 25.50
Bliss Volume (HCC1937, compound A × partner): 10.96
HSA volume (HCC1937, compound A × partner): 11.56
Loewe Volume (HCC1937, compound A × partner): 11.67
Synergy Score (HCC1937, compound A × partner): 11.60
Bliss Volume (HCC1954, compound A × partner): 25.28
HSA volume (HCC1954, compound A × partner): 14.25
Loewe Volume (HCC1954, compound A × partner): 12.73
Synergy Score (HCC1954, compound A × partner): 25.34
Bliss Volume (HCC2218, compound A × partner): 11.69
HSA volume (HCC2218, compound A × partner): 6.53
Loewe Volume (HCC2218, compound A × partner): 5.20
Synergy Score (HCC2218, compound A × partner): 10.71
Bliss Volume (HDQ-P1, compound A × partner): 7.85
HSA volume (HDQ-P1, compound A × partner): 8.96
Loewe Volume (HDQ-P1, compound A × partner): 8.67
Synergy Score (HDQ-P1, compound A × partner): 11.43
Bliss Volume (HMC-1-8, compound A × partner): 31.00
HSA volume (HMC-1-8, compound A × partner): 8.49
Loewe Volume (HMC-1-8, compound A × partner): 7.43
Synergy Score (HMC-1-8, compound A × partner): 16.44
Bliss Volume (JIMT-1, compound A × partner): 4.03
HSA volume (JIMT-1, compound A × partner): 4.64
Loewe Volume (JIMT-1, compound A × partner): 3.81
Synergy Score (JIMT-1, compound A × partner): 6.23
Bliss Volume (KPL-1, compound A × partner): 5.18
HSA volume (KPL-1, compound A × partner): 8.06
Loewe Volume (KPL-1, compound A × partner): 7.67
Synergy Score (KPL-1, compound A × partner): 10.20
Bliss Volume [10]: 14.35
HSA volume [10]: 11.99
Loewe Volume [10]: 11.64
Synergy Score [10]: 17.93
Bliss Volume [14]: 16.97
HSA volume [14]: 10.22
Loewe Volume [14]: 12.14
Synergy Score [14]: 15.31
Bliss Volume [15]: 5.15
HSA volume [15]: 7.49
Loewe Volume [15]: 6.89
Synergy Score [15]: 11.57
Bliss Volume [16]: −0.86
HSA volume [16]: −2.31
Loewe Volume [16]: −3.71
Synergy Score [16]: 4.61
Bliss Volume [17]: 1.49
HSA volume [17]: 1.67
Loewe Volume [17]: 1.48
Bliss Volume [18]: 30.81
HSA volume [18]: 22.87
Loewe Volume [18]: 21.87
Synergy Score [18]: 44.90
Bliss Volume [19]: 28.07
HSA volume [19]: 11.28
Loewe Volume [19]: 10.11
Synergy Score [19]: 20.73
Bliss Volume [20]: 14.70
HSA volume [20]: 4.18
Loewe Volume [20]: 2.95
Synergy Score [20]: 7.33
Bliss Volume [21]: 18.66
HSA volume [21]: 18.88
Loewe Volume [21]: 17.94
Synergy Score [21]: 33.03
Bliss Volume [22]: −1.55
HSA volume [22]: 2.30
Loewe Volume [22]: 1.76
Synergy Score [22]: 6.53
Bliss Volume [23]: 16.15
HSA volume [23]: 16.66
Loewe Volume [23]: 17.29
Synergy Score [23]: 25.42
Bliss Volume [24]: 6.48
HSA volume [24]: 3.70
Loewe Volume [24]: 2.62
Synergy Score [24]: 8.08
